Data set [1] in a line: Drug absorption in Sprague-Dawley rat at 5 mg/kg, po by LC-MS analysis. Format: ADME, organism-based. Conditions: in vivo, read-out: Fabs.
Data set [2] concerns the target MMP2 (Homo sapiens, UniProt P08253). Nature of the data set: Inhibition of human MMP2 assessed as residual activity using Mca-PLGL-(DapDnp)-AR-NH2 as substrate at 200 uM by fluorescence assay relative to control. The conditions noted are these: human MMP2 enzyme, probe Mca-PLGL-(DapDnp)-AR-NH2, read-out: Activity.
Data set [3] can be described thus: Volume of distribution at steady state in Sprague-Dawley rat at 6 mg/kg, iv by LC-MS analysis. The format is ADME, organism-based. The conditions noted are these: in vivo, read-out: Vdss.
Data set [4] addresses CYP3A4 (Homo sapiens, UniProt P08684). Nature of the data set: Inhibition of recombinant human CYP3A4 expressed in baculosomes assessed as residual activity at 25 uM using BOMCC substrate by fluorescence assay relative to control. Format: ADME. Conditions: probe BOMCC, read-out: Activity.
Data set [5] is filed under the species Homo sapiens. Nature of the data set: Selectivity ratio of IC50 for recombinant human meprin alpha expressed in insect cells to IC50 for recombinant human meprin beta expressed in yeast.
Data set [6] has as its target T1, BMP1 (Homo sapiens, UniProt P13497).
T1 sequence (P13497 whole entry): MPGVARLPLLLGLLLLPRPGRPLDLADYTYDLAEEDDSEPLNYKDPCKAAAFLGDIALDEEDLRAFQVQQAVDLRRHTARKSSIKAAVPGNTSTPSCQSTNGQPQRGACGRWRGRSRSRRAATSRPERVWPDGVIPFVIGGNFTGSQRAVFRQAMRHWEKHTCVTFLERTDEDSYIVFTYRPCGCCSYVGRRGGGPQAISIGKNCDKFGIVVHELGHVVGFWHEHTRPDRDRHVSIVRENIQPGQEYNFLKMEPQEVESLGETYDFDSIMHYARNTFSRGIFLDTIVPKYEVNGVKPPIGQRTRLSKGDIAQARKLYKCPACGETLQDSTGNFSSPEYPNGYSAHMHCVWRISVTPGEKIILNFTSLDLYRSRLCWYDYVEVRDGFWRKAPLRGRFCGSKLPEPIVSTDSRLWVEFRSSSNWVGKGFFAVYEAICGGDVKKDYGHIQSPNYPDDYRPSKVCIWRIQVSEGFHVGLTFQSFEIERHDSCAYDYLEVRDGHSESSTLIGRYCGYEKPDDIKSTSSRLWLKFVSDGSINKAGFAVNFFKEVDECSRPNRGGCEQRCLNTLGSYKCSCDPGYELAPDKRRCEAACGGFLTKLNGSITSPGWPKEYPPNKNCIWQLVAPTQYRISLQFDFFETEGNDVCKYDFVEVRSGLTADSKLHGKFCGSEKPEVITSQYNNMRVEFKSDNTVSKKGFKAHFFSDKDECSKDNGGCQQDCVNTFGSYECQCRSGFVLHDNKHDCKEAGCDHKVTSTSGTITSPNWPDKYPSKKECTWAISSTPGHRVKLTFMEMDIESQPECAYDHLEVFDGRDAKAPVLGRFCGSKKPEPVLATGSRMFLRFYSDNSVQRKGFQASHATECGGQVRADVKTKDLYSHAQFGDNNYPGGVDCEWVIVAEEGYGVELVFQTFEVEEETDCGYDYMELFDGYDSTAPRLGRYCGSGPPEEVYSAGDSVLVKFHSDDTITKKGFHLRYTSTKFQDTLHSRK
Nature of the data set: Inhibition of human BMP1 expressed in Escherichia coli assessed as residual activity using Abz-YVADAPK(Dnp)G-OH as substrate at 200 uM by fluorescence assay relative to control. Conditions: probe Abz-YVADAPK(Dnp)G-OH, read-out: Activity.

Data set [7] has as its system SH-SY5Y. Nature of the data set: Cytotoxicity in human SH-SY5Y cells assessed as cell viability at 100 uM after 24 hrs by CytoTox-ONE-based assay relative to control. The conditions noted are these: read-out: Activity. Format: functional.
Data set [8] can be described thus: Half life in Sprague-Dawley rat at 6 mg/kg, iv by LC-MS analysis. Conditions: in vivo. The format is ADME, organism-based.
Data set [9] can be described thus: Tmax in Sprague-Dawley rat at 10 mg/kg, ip by LC-MS analysis. Format: ADME, organism-based. Conditions: in vivo.
In data set [10] the target is ADAM17 (Homo sapiens, UniProt P78536). Nature of the data set: Inhibition of human ADAM17 assessed as residual activity using Abz-LANAVRSSSR-(DapDnp)-AR-NH2 as substrate at 200 uM by fluorescence assay relative to control. Conditions: human ADAM17 enzyme, probe Abz-LANAVRSSSR-(DapDnp)-AR-NH2, read-out: Activity.
The target of data set [11] is MMP13 (Homo sapiens, UniProt P45452). Nature of the data set: Inhibition of human MMP13 assessed as residual activity using Mca-PLGL-(DapDnp)-AR-NH2 as substrate at 200 uM by fluorescence assay relative to control. The conditions noted are these: human MMP13 enzyme, probe Mca-PLGL-(DapDnp)-AR-NH2, read-out: Activity.
For data set [12], the target named is MMP9 (Homo sapiens, UniProt P14780). Nature of the data set: Inhibition of human MMP9 assessed as residual activity using Mca-PLGL-(DapDnp)-AR-NH2 as substrate at 200 uM by fluorescence assay relative to control. Conditions: human MMP9 enzyme, probe Mca-PLGL-(DapDnp)-AR-NH2, read-out: Activity.
Data set [13] can be described thus: Tmax in Sprague-Dawley rat at 5 mg/kg, po by LC-MS analysis. The format is ADME, organism-based. The conditions noted are these: in vivo.
Data set [14] can be described thus: Clearance in Sprague-Dawley rat at 6 mg/kg, iv by LC-MS analysis. The format is ADME, organism-based. Conditions: in vivo.
The nature of data set [15]: Cmax in Sprague-Dawley rat at 5 mg/kg, po by LC-MS analysis. Conditions: in vivo. More on the design: dose 5 mg/kg, route oral. The format is ADME, organism-based.
Data set [16] has as its system HepG2. In words: Cytotoxicity in human HepG2 cells assessed as cell viability at 100 uM after 24 hrs by CytoTox-ONE-based assay relative to control. The conditions noted are these: HepG2, 24 h, read-out: Activity. The format is functional.

The half-life is the time in which the quantity being followed falls by half. Higher therefore signals slow decline. For orientation: Tmax means the time from dosing to the highest level. A word on the clearance: it is the volume of plasma or blood freed of the substance per unit of time. The low end stands for a low capacity for elimination, the high end for a high capacity for elimination. For orientation: Cmax means the maximum level reached in the sampled fluid or tissue.

CYP3A4, sequence (P08684 whole entry): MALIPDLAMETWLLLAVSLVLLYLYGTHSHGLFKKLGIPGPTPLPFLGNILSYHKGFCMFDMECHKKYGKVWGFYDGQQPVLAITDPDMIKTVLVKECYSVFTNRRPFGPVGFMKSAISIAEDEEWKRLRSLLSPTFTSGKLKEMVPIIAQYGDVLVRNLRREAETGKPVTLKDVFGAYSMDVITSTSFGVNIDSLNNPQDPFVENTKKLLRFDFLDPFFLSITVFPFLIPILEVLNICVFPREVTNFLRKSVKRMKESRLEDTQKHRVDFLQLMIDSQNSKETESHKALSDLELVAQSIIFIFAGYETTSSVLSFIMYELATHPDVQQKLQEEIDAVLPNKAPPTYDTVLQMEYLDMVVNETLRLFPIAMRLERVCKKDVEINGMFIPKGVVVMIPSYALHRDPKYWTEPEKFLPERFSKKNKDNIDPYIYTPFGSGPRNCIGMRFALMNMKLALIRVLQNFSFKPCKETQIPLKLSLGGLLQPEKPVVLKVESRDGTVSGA
ADAM17, sequence (P78536 whole entry): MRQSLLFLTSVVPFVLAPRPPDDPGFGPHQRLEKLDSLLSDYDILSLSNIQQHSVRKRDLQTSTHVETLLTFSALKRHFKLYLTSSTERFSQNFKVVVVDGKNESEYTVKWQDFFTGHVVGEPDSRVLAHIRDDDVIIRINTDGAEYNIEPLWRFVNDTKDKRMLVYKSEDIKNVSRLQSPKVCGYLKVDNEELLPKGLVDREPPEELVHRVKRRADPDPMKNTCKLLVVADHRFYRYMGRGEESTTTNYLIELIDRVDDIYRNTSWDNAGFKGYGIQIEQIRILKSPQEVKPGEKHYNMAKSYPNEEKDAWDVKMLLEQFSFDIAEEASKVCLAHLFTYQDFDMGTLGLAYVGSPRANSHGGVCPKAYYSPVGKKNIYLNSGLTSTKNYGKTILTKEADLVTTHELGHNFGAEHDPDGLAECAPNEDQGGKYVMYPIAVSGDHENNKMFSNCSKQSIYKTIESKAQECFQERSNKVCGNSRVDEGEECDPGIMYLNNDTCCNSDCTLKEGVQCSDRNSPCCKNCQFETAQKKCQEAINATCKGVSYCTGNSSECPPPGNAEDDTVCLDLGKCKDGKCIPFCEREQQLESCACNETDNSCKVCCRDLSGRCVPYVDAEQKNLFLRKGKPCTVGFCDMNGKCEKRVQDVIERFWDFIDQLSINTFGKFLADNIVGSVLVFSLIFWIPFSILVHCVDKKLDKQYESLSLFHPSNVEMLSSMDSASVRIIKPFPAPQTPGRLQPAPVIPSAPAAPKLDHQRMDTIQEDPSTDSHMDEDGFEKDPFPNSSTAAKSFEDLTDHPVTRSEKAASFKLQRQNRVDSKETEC
MMP2, sequence (P08253 whole entry): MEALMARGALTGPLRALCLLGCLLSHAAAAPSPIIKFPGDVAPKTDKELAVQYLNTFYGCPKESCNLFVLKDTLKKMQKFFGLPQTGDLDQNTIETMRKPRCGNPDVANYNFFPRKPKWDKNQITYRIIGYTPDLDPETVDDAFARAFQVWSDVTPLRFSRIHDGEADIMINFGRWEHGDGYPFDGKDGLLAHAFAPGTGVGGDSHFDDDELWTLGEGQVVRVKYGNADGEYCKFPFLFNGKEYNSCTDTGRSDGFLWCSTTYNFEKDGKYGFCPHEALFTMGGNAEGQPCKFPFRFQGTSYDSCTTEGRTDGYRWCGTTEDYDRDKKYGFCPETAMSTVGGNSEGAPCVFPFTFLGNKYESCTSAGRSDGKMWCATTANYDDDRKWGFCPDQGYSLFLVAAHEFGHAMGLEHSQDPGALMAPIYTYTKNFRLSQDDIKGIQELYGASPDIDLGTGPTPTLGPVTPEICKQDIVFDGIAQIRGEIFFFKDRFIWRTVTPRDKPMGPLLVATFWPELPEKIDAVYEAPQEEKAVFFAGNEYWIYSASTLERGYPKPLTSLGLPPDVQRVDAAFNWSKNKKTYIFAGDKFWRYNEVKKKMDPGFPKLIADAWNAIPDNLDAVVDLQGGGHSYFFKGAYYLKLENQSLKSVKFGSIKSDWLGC
MMP9, sequence (P14780 whole entry): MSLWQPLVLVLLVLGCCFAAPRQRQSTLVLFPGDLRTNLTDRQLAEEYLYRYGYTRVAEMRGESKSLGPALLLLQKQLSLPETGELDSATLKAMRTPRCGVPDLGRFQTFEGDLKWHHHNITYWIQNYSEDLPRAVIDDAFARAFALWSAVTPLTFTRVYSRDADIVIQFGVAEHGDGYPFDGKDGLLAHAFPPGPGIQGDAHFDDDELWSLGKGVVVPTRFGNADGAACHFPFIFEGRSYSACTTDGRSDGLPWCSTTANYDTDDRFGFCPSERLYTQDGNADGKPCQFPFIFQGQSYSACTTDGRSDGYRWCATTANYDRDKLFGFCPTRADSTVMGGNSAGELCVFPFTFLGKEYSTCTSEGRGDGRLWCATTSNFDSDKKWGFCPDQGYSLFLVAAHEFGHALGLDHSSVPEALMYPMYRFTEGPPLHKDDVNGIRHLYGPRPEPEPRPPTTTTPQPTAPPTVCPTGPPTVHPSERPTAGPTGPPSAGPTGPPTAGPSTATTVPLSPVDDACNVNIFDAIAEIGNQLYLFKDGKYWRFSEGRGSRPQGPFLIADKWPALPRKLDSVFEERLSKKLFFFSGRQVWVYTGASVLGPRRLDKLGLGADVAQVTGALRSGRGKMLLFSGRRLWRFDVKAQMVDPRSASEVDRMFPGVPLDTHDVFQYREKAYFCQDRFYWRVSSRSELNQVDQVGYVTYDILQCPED

For `O=C(CN(Cc1cccc(C(=O)O)c1)Cc1cccc(C(=O)O)c1)NO`, the Fa in data set [1] was determined as 13%. For the same compound, the activity at 200 µM is 64% in [2]; 87% in data set [6]; 76% in [10]; 78% in data set [11]; 74% in data set [12]. In [3], the Vd came to 0.42 L/kg. In data set [4], the activity at 25 µM was determined as 86%. Also, the Ratio IC50 in [5] was found to be 300. For the same compound, the viability at 100 µM in data set [7] was determined as 96%; in data set [16] it was 97%. Further, the half-life in data set [8] was 150 min. The Tmax in data set [9] worked out at 7.2 min; in data set [13], 10.2 min. In [14], this compound had a clearance of 29.7 mL/min/kg. For the same compound, in data set [15], the concentration peaked (Cmax) at 340 ng/mL.
